Results published in ChEMBL document CHEMBL1152860, “Synthesis and antiproliferative activity of 3-amino-N-phenyl-1H-indazole-1-carboxamides” (2009).

Columns and labels:
Assay type in all cases: functional
[1] = system: SNB-19; experiment: Growth inhibition of human SNB19 cells after 48 hrs by SRB assay; conditions: SNB-19, 48 h
[2] = system: HL-60(TB); experiment: Growth inhibition of human HL-60(TB) cells after 48 hrs by SRB assay; conditions: HL-60, 48 h
[3] = system: RXF 393; experiment: Growth inhibition of human […] cells after 48 hrs by SRB assay; conditions: RXF 393, 48 h
[4] = system: UO-31; experiment: Growth inhibition of human UO31 cells after 48 hrs by SRB assay; conditions: UO-31, 48 h
[5] = system: 786-0; experiment: Growth inhibition of human 786-0 cells after 48 hrs by SRB assay; conditions: 786-0, 48 h
[6] = system: SK-OV-3; experiment: Growth inhibition of human SKOV3 cells after 48 hrs by SRB assay; conditions: SK-OV-3, 48 h
[7] = system: NCI/ADR-RES; experiment: Growth inhibition of human NCI/ADR-RES cells after 48 hrs by SRB assay
[8] = system: OVCAR-3; experiment: Growth inhibition of human OVCAR-3 cells after 48 hrs by SRB assay; conditions: OVCAR-3, 48 h
[9] = system: CAKI-1; experiment: Growth inhibition of human Caki1 cells after 48 hrs by SRB assay; conditions: CAKI-1, 48 h
[10] = system: HCT-15; experiment: Growth inhibition of human HCT15 cells after 48 hrs by SRB assay; conditions: HCT-15, 48 h
[11] = system: SR; experiment: Growth inhibition of human SR cells after 48 hrs by SRB assay
[12] = system: ACHN; experiment: Growth inhibition of human ACHN cells after 48 hrs by SRB assay
[13] = system: NCI-H23; experiment: Growth inhibition of human NCI-H23 cells after 48 hrs by SRB assay; conditions: NCI-H23, 48 h
[14] = system: U-251; experiment: Growth inhibition of human U251 cells after 48 hrs by SRB assay; conditions: U-251, 48 h
[15] = system: SK-MEL-2; experiment: Growth inhibition of human SK-MEL-2 cells after 48 hrs by SRB assay; conditions: SK-MEL-2, 48 h
[16] = system: KM12; experiment: Growth inhibition of human KM12 cells after 48 hrs by SRB assay; conditions: KM12, 48 h
[17] = system: EKVX; experiment: Growth inhibition of human EKVX cells after 48 hrs by SRB assay
[18] = system: SK-MEL-28; experiment: Growth inhibition of human SK-MEL-28 cells after 48 hrs by SRB assay; conditions: SK-MEL-28, 48 h
[19] = system: HOP-92; experiment: Growth inhibition of human HOP92 cells after 48 hrs by SRB assay; conditions: HOP-92, 48 h
[20] = system: OVCAR-4; experiment: Growth inhibition of human OVCAR4 cells after 48 hrs by SRB assay; conditions: OVCAR-4, 48 h
[21] = system: RPMI-8226; experiment: Growth inhibition of human RPMI8226 cells after 48 hrs by SRB assay; conditions: RPMI-8226, 48 h
[22] = system: SN12C; experiment: Growth inhibition of human SN12C cells after 48 hrs by SRB assay
[23] = system: BT-549; experiment: Growth inhibition of human BT549 cells after 48 hrs by SRB assay; conditions: BT-549, 48 h
[24] = system: CCRF-CEM; experiment: Growth inhibition of human CCRF-CEM cells after 48 hrs by SRB assay
[25] = system: PC-3; experiment: Growth inhibition of human PC3 cells after 48 hrs by SRB assay; conditions: PC-3, 48 h
[26] = system: NCI-H322M; experiment: Growth inhibition of human NCI-H322M cells after 48 hrs by SRB assay
[27] = system: SK-MEL-5; experiment: Growth inhibition of human SK-MEL-5 cells after 48 hrs by SRB assay; conditions: SK-MEL-5, 48 h
[28] = system: COLO 205; experiment: Growth inhibition of human COLO205 cells after 48 hrs by SRB assay; conditions: COLO 205, 48 h
[29] = system: M14; experiment: Growth inhibition of human M14 cells after 48 hrs by SRB assay; conditions: M14, 48 h
[30] = system: TK-10; experiment: Growth inhibition of human TK10 cells after 48 hrs by SRB assay; conditions: TK-10, 48 h
[31] = system: UACC-257; experiment: Growth inhibition of human UACC257 cells after 48 hrs by SRB assay; conditions: UACC-257, 48 h
[32] = system: DU-145; experiment: Growth inhibition of human DU145 cells after 48 hrs by SRB assay; conditions: DU-145, 48 h
[33] = system: SF-295; experiment: Growth inhibition of human SF295 cells after 48 hrs by SRB assay; conditions: SF-295, 48 h
[34] = system: A498; experiment: Growth inhibition of human A498 cells after 48 hrs by SRB assay; conditions: A498, 48 h
[35] = system: HT-29; experiment: Growth inhibition of human HT-29 cells after 48 hrs by SRB assay; conditions: HT-29, 48 h
[36] = system: Malme-3M; experiment: Growth inhibition of human MALME-3M cells after 48 hrs by SRB assay
[37] = system: OVCAR-5; experiment: Growth inhibition of human OVCAR5 cells after 48 hrs by SRB assay; conditions: OVCAR-5, 48 h
[38] = system: A549; experiment: Growth inhibition of human A549 cells after 48 hrs by SRB assay; conditions: A549, 48 h
[39] = system: MDA-MB-231; experiment: Growth inhibition of human MDA-MB-231 cells after 48 hrs by SRB assay; conditions: MDA-MB-231, 48 h
[40] = system: MOLT-4; experiment: Growth inhibition of human MOLT4 cells after 48 hrs by SRB assay; conditions: MOLT-4, 48 h
[41] = system: NCI-H460; experiment: Growth inhibition of human NCI-H460 cells after 48 hrs by SRB assay; conditions: NCI-H460, 48 h
[42] = system: NCI-H226; experiment: Growth inhibition of human NCI-H226 cells after 48 hrs by SRB assay; conditions: NCI-H226, 48 h
[43] = system: SNB-75; experiment: Growth inhibition of human SNB75 cells after 48 hrs by SRB assay; conditions: SNB-75, 48 h
[44] = system: SW-620; experiment: Growth inhibition of human SW620 cells after 48 hrs by SRB assay; conditions: SW-620, 48 h
[45] = system: LOX IMVI; experiment: Growth inhibition of human LOXIMVI cells after 48 hrs by SRB assay
[46] = system: MCF7; experiment: Growth inhibition of human MCF7 cells after 48 hrs by SRB assay; conditions: MCF7, 48 h
[47] = system: HOP-62; experiment: Growth inhibition of human HOP62 cells after 48 hrs by SRB assay; conditions: HOP-62, 48 h
[48] = system: SF-539; experiment: Growth inhibition of human SF539 cells after 48 hrs by SRB assay; conditions: SF-539, 48 h
[49] = system: MDA-MB-435; experiment: Growth inhibition of human MDA-MB-435 cells after 48 hrs by SRB assay; conditions: MDA-MB-435, 48 h
[50] = Growth inhibition of human Hs 578T cells after 48 hrs by SRB assay
[51] = system: T47D; experiment: Growth inhibition of human T47D cells after 48 hrs by SRB assay
[52] = system: IGROV-1; experiment: Growth inhibition of human IGROV1 cells after 48 hrs by SRB assay; conditions: IGROV-1, 48 h
[53] = system: K562; experiment: Growth inhibition of human K562 cells after 48 hrs by SRB assay; conditions: K562, 48 h
[54] = system: OVCAR-8; experiment: Growth inhibition of human OVCAR8 cells after 48 hrs by SRB assay; conditions: OVCAR-8, 48 h
[55] = system: SF-268; experiment: Growth inhibition of human SF268 cells after 48 hrs by SRB assay; conditions: SF-268, 48 h
[56] = system: HCT-116; experiment: Growth inhibition of human HCT116 cells after 48 hrs by SRB assay; conditions: HCT-116, 48 h
[57] = system: NCI-H522; experiment: Growth inhibition of human NCI-H522 cells after 48 hrs by SRB assay; conditions: NCI-H522, 48 h
[58] = system: UACC-62; experiment: Growth inhibition of human UACC62 cells after 48 hrs by SRB assay; conditions: UACC-62, 48 h
[59] = system: HCC 2998; experiment: Growth inhibition of human HCC2998 cells after 48 hrs by SRB assay; conditions: HCC 2998, 48 h

COc1ccc(NC(=O)n2nc(N)c3ccccc32)cc1OC
GI50 [1]: > 100 µM | GI50 [2]: 27.9 µM | GI50 [3]: 95.2 µM | GI50 [4]: 28.5 µM | GI50 [5]: > 100 µM | GI50 [6]: > 100 µM | GI50 [7]: 37.6 µM | GI50 [8]: 92 µM | GI50 [9]: > 100 µM | GI50 [10]: 44.1 µM | GI50 [11]: 29.3 µM | GI50 [12]: 58.3 µM | GI50 [13]: 83.5 µM | GI50 [14]: 61.7 µM | GI50 [15]: 37.2 µM | GI50 [16]: 67.9 µM | GI50 [17]: 54.1 µM | GI50 [18]: > 100 µM | GI50 [19]: 24.6 µM | GI50 [20]: 63.2 µM | GI50 [21]: 21.1 µM | GI50 [22]: > 100 µM | GI50 [23]: 25.9 µM | GI50 [24]: 36.7 µM | GI50 [25]: 35.5 µM | GI50 [26]: > 100 µM | GI50 [27]: 27.9 µM | GI50 [28]: 85.9 µM | GI50 [29]: 64.9 µM | GI50 [30]: 92.4 µM | GI50 [31]: 73.6 µM | GI50 [32]: 73.1 µM | GI50 [33]: 37.6 µM | GI50 [34]: 30.3 µM | GI50 [35]: 48.2 µM | GI50 [36]: > 100 µM | GI50 [37]: 45.5 µM | GI50 [38]: 45.8 µM | GI50 [39]: 53.6 µM | GI50 [40]: 39.4 µM | GI50 [41]: 34.5 µM | GI50 [42]: 83.1 µM | GI50 [43]: 30.6 µM | GI50 [44]: > 100 µM | GI50 [45]: 49.3 µM | GI50 [46]: 29.5 µM | GI50 [47]: 75.2 µM | GI50 [48]: 95.9 µM | GI50 [49]: > 100 µM | GI50 [50]: 43.3 µM | GI50 [51]: 33 µM | GI50 [52]: 18.1 µM | GI50 [53]: 41.2 µM | GI50 [54]: 39.7 µM | GI50 [55]: 49.6 µM | GI50 [56]: 43.5 µM | GI50 [57]: 34.9 µM | GI50 [58]: 52.3 µM | GI50 [59]: 61.1 µM

COc1ccc(NC(=O)Nc2n[nH]c3ccccc23)cc1
GI50 [1]: > 100 µM | GI50 [2]: > 100 µM | GI50 [3]: > 100 µM | GI50 [4]: > 100 µM | GI50 [5]: > 100 µM | GI50 [6]: > 100 µM | GI50 [7]: > 100 µM | GI50 [8]: > 100 µM | GI50 [9]: > 100 µM | GI50 [10]: > 100 µM | GI50 [11]: > 100 µM | GI50 [12]: > 100 µM | GI50 [13]: > 100 µM | GI50 [14]: > 100 µM | GI50 [15]: > 100 µM | GI50 [16]: > 100 µM | GI50 [17]: > 100 µM | GI50 [18]: > 100 µM | GI50 [19]: > 100 µM | GI50 [20]: > 100 µM | GI50 [21]: > 100 µM | GI50 [22]: > 100 µM | GI50 [23]: > 100 µM | GI50 [24]: 59.6 µM | GI50 [25]: > 100 µM | GI50 [26]: > 100 µM | GI50 [27]: > 100 µM | GI50 [28]: > 100 µM | GI50 [29]: > 100 µM | GI50 [30]: > 100 µM | GI50 [31]: > 100 µM | GI50 [32]: > 100 µM | GI50 [33]: > 100 µM | GI50 [34]: > 100 µM | GI50 [35]: > 100 µM | GI50 [36]: > 100 µM | GI50 [37]: > 100 µM | GI50 [38]: > 100 µM | GI50 [39]: > 100 µM | GI50 [40]: > 100 µM | GI50 [41]: > 100 µM | GI50 [42]: > 100 µM | GI50 [43]: > 100 µM | GI50 [44]: > 100 µM | GI50 [45]: > 100 µM | GI50 [46]: > 100 µM | GI50 [47]: > 100 µM | GI50 [48]: > 100 µM | GI50 [49]: > 100 µM | GI50 [50]: > 100 µM | GI50 [51]: 100 µM | GI50 [52]: > 100 µM | GI50 [53]: > 100 µM | GI50 [54]: > 100 µM | GI50 [55]: > 100 µM | GI50 [56]: > 100 µM | GI50 [57]: > 100 µM | GI50 [58]: > 100 µM | GI50 [59]: > 100 µM
